Patent US7067517B2 (priority 2001, dated 2006)
Like-named read-outs stand apart in the source and are kept apart here.

Columns and labels:
[1] = target: T1, Hormone-sensitive lipase (HSL) (Homo sapiens, UniProt Q05469); test: biochemical; type: biochemical
T1 sequence (Q05469 1-1076): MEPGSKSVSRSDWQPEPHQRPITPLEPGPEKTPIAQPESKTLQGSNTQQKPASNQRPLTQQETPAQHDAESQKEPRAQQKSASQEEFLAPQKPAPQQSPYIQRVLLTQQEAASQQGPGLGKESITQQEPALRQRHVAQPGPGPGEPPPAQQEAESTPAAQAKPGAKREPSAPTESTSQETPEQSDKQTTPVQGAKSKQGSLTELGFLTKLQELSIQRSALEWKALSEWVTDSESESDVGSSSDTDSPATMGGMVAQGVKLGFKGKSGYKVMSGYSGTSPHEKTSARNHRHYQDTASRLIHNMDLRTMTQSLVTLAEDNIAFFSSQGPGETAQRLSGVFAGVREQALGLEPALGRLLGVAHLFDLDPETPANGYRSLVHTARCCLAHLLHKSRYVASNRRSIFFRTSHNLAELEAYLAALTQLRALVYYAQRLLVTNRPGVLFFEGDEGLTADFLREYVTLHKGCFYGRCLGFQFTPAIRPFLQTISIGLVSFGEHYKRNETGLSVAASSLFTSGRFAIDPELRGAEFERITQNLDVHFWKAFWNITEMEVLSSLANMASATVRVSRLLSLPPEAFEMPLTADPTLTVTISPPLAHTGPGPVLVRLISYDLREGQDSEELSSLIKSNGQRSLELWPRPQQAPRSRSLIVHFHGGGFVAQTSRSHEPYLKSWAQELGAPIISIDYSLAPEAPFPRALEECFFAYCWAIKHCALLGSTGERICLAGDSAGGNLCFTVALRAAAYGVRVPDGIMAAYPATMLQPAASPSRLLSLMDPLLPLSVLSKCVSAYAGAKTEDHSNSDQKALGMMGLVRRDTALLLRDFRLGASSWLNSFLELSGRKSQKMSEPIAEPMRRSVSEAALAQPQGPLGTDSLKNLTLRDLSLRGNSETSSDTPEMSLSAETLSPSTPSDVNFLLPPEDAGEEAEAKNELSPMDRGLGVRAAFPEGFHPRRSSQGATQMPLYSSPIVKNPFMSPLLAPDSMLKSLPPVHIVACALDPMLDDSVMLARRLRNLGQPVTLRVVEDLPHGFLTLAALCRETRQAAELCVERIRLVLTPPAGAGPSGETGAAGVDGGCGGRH
Description: (§1) Materials. The Hormone-sensitive lipase was provided by Dr. Cecilia Holm, from Lund University Sweden or produced and purified by Novo Nordisk (NN) using the reagents and protocols used by Dr. Holm. The substrates used are: ^3H-labeled triolein (TO) from Amersham, Buckinghamshire, U.K. cat No. TRA191; 5–20 Ci/mmol dissolved in toluene, triolein (Sigma, Cat. No. T-1740), fluorochrome-labeled triacylglyceride (cis-octadec-9-enoic acid 2-[12-(7-nitrobenzo[1,2,5]oxadiazol-4-ylamino)dodecanoyloxy]-1-cis-octadec-9-enoyloxymethyl-ethyl ester) prepared by Novo Nordisk (NN) by conventional methods, and 1,3-(di[^3H]-stearin), 2-(PEG-Boitin)glycerol prepared in collaboration with Amersham Pharmacia Biotech, UK and described in WO 01/073442. Phosphatidyl choline (PC) and phosphatidyl inositol (PI) are from Sigma (St Luis Mo. cat. Nos. P-3556 and P-5954 respectively). All other reagents are of commercial grade and obtained from various commercial sources.
3180.2: Assay for determination of percent inhibition by compound at 10 μM concentration.
A lipid emulsion with ^3H-Triolein and phospholipid is used as substrate with a standard cencentration of highly purified HSL. BSA is added as product receptor. The substrate is prepared as follows:
30 μl PC:PI (20 mg/ml solution of PC:PI 3:1 prepared in chloroform)+128 μl cold TO+15 μl ^3H-TO are mixed and then evaporated under a gentle stream of N2 followed by 20–30 minutes in a Speedvac to ensure the absence of residual solvent.
Compound and HSL are incubated for 30 min at 25° C. before addition of substrate. Reaction is stopped after 30 min at 25° C. by adding a mixture of methanol, chloroform and heptane at high pH. Formed product is separated from substrate by phase separation.
Results are given as percent activity relative to an un-inhibited sample (no compound).

[2] = target: T1, Hormone-sensitive lipase (HSL); type: biochemical
Description: as §1
2898.2: This method is an enzyme assay based upon SPA (scintillation proximity assay) particles. The substrate, 1,3-(di-[^3H]-stearin), 2-(PEG-Biotin)-glycerol, is marked with ^3H in both fatty acid moieties in the tri-glyceride. The third moiety of the tri-glyceride is a PEG linked Biotin. The substrate binds through Biotin to streptavidin in the SPA particles and the proximity between the radioactive tritium in the stearic acid moiety and the SPA particle results in emission of light from the SPA particles. The assay is an on-bead assay where HSL degrades the substrate, where after ^3H-stearin acid is released from the bead. The amount of light emitted is proportional to the amount of substrate bound to the receptor. When a compound that inhibits the activity of HSL is present it results in a decrease in degradation of the substrate and thus an increase in the amount of light emitted and a concomitant increase in % Eff. % Eff(% Inhibition)=(S−S0Eff)/(SmaxEff−S0Eff)×100 Where S=signal in dpm., SOEff=no inhibitor added, SmaxEff=with maximum concentration of inhibitor. Results

[3] = SPA on-bead assay, % Eff (% Inhibition)

Compound	Test 3180.2 HSL % ACTIVITY All ([1]; 10 µM)	Test 2898.2 HSL2 % Inhibition All [2]	Test 2898.2 HSL2 % Inhibition All [2, 3]	activity at 10 µM ([1]; read-out: Test 3180.2 HSL % ACTIVITY All)
1-Biphenyl-4-yl-3-methylamino-propenone-cyclohexyl-carbamic acid [Example 115]	85%	73.6%	–	–
Cc1ccc(CSc2nnc(OC(=O)N(C)C)n2-c2cccc(Cl)c2)cc1 [Example 133, Dimethyl carbamic acid 4-(3-chloro-phenyl)-5-(4-methyl-benzylsulfanyl)-4H-[1,2,4]triazol-3-yl ester]	–	–	15.8%	–
CN(C)C(=O)On1nnc2ccccc21 [Example 103, Dimethylcarbamic acid benzotriazol-1-yl ester]	–	–	101.4%	2%
